Measurements reported in ChEMBL document CHEMBL1697781, “Assessment of the health effects of chemicals in humans: II. Construction of an adverse effects database for QSAR modeling” (Curr Drug Discov Technol, 2004).

Experiments:
Conditions in all cases: human; call rule not given here
Hepatotoxicity [1] = assay: FDA HLAED, lactate dehydrogenase (LDH) increase
Hepatotoxicity [2] = assay: FDA HLAED, serum glutamic oxaloacetic transaminase (SGOT) increase
Hepatotoxicity [3] = assay: FDA HLAED, liver enzyme composite activity
Hepatotoxicity [4] = assay: FDA HLAED, gamma-glutamyl transferase (GGT) increase
Hepatotoxicity [5] = assay: FDA HLAED, alkaline phosphatase increase
Hepatotoxicity [6] = assay: FDA HLAED, serum glutamic pyruvic transaminase (SGPT) increase
For GGT Increase - Index Value in this document: reference of the scale not given here.
For LDH Increase - Index Value in this document: reference of the scale not given here.

Structure (SMILES) | LDH Increase - Activity Score (Hepatotoxicity [1]) | LDH Increase - Index Value (Hepatotoxicity [1]) | LDH Increase - Number of Reports (Hepatotoxicity [1]) | SGOT Increase - Activity Score (Hepatotoxicity [2]) | SGOT Increase - Index Value (Hepatotoxicity [2]) | SGOT Increase - Number of Reports (Hepatotoxicity [2]) | Composite Activity - Active (Hepatotoxicity [3]) | Composite Activity - Marginal (Hepatotoxicity [3]) | Composite Activity - Score (Hepatotoxicity [3]) | GGT Increase - Activity Score (Hepatotoxicity [4]) | GGT Increase - Index Value (Hepatotoxicity [4]) | GGT Increase - Number of Reports (Hepatotoxicity [4]) | Alkaline Phosphatase Increase - Activity Score (Hepatotoxicity [5]) | Alkaline Phosphatase Increase - Index Value (Hepatotoxicity [5]) | Alkaline Phosphatase Increase - Number of Reports (Hepatotoxicity [5]) | SGPT Increase - Activity Score (Hepatotoxicity [6]) | SGPT Increase - Index Value (Hepatotoxicity [6]) | SGPT Increase - Number of Reports (Hepatotoxicity [6]) | other results
CN(N=O)C(=O)N[C@@H](C=O)[C@@H](O)[C@H](O)[C@H](O)CO [STREPTOZOCIN] | Inactive | 0 | < 4 | Inactive | 0 | < 4 | 0 | 0 | Inactive | Inactive | 0 | < 4 | Inactive | 11.8 | < 4 | Inactive | 0 | < 4 | 
Clc1ccc(CSC(Cn2ccnc2)c2ccc(Cl)cc2Cl)cc1 (stereo unspecified) [SULCONAZOLE] | Inactive | 0 | < 4 | Inactive | 0 | < 4 |  |  |  | Inactive | 0 | < 4 | Inactive | 0 | < 4 | Inactive | 0 | < 4 | Composite Activity - Active (Hepatotoxicity [3]; Liver): 0; Composite Activity - Marginal (Hepatotoxicity [3]; Liver): 0; Composite Activity - Score (Hepatotoxicity [3]; Liver): Inactive
CC(C(=O)O)c1ccc(C(=O)c2cccs2)cc1 (stereo unspecified) [SUPROFEN] | Inactive | 0 | < 4 | Inactive | 6.1 | < 4 | 0 | 0 | Inactive | Inactive | 0 | < 4 | Inactive | 6.1 | < 4 | Inactive | 0 | < 4 | 
Nc1c2c(nc3ccccc13)CCCC2 [TACRINE] | Active | 19 | >= 4 | Active | 58.1 | >= 4 |  |  |  | Active | 17.4 | >= 4 | Active | 14.1 | >= 4 | Active | 170 | >= 4 | Composite Activity - Active (Hepatotoxicity [3]; Liver): 5; Composite Activity - Marginal (Hepatotoxicity [3]; Liver): 0; Composite Activity - Score (Hepatotoxicity [3]; Liver): Active
CCOC(=O)c1ccc(C#Cc2ccc3c(c2)C(C)(C)CCS3)nc1 [TAZAROTENE] | Inactive | 0 | < 4 | Inactive | 0 | < 4 | 0 | 0 | Inactive | Inactive | 0 | < 4 | Inactive | 0 | < 4 | Inactive | 0 | < 4 | 
COc1cc([C@@H]2c3cc4c(cc3[C@@H](O[C@@H]3O[C@@H]5CO[C@@H](c6cccs6)O[C@H]5[C@H](O)[C@H]3O)[C@H]3COC(=O)[C@H]23)OCO4)cc(OC)c1O [TENIPOSIDE] | Inactive | 0 | < 4 | Inactive | 0 | < 4 | 0 | 0 | Inactive | Inactive | 0 | < 4 | Inactive | 0 | < 4 | Inactive | 0 | < 4 | 
COc1cc2nc(N3CCN(C(=O)C4CCCO4)CC3)nc(N)c2cc1OC (stereo unspecified) [TERAZOSIN] | Inactive | 0.5 | < 4 | Inactive | 1.6 | >= 4 | 0 | 0 | Inactive | Inactive | 0.8 | < 4 | Inactive | 0.5 | < 4 | Inactive | 1.3 | >= 4 | 
CN(C/C=C/C#CC(C)(C)C)Cc1cccc2ccccc12 [TERBINAFINE] | Inactive | 1.1 | >= 4 | Marginally Active | 3.1 | >= 4 | 0 | 1 | Inactive | Inactive | 2.6 | >= 4 | Inactive | 1.1 | >= 4 | Inactive | 2.8 | >= 4 | 
CC(C)N1CCN(c2ccc(OCC3COC(Cn4cncn4)(c4ccc(Cl)cc4Cl)O3)cc2)CC1 (stereo unspecified) [TERCONAZOLE] | Inactive | 0 | < 4 | Inactive | 0 | < 4 | 0 | 0 | Inactive | Inactive | 0 | < 4 | Inactive | 0 | < 4 | Inactive | 0 | < 4 | 
CC(C)(C)c1ccc(C(O)CCCN2CCC(C(O)(c3ccccc3)c3ccccc3)CC2)cc1 (stereo unspecified) [TERFENADINE] | Inactive | 0.2 | < 4 | Inactive | 0.7 | >= 4 | 0 | 0 | Inactive | Inactive | 0.1 | < 4 | Inactive | 0.6 | >= 4 | Inactive | 0.7 | >= 4 | 
C[C@]12CC[C@H]3[C@@H](CCC4=CC(=O)CC[C@@]43C)[C@@H]1CC[C@@H]2OC(=O)CCC1CCCC1 [TESTOSTERONE CYPIONATE] | Inactive | 2.4 | < 4 | Inactive | 4.8 | < 4 | 0 | 0 | Inactive | Inactive | 4.8 | < 4 | Inactive | 0 | < 4 | Inactive | 7.2 | < 4 | 
CCCCCCC(=O)O[C@H]1CC[C@H]2[C@@H]3CCC4=CC(=O)CC[C@]4(C)[C@H]3CC[C@]12C [TESTOSTERONE ENANTHATE] | Inactive | 2.4 | < 4 | Inactive | 4.8 | < 4 | 0 | 0 | Inactive | Inactive | 4.8 | < 4 | Inactive | 0 | < 4 | Inactive | 7.2 | < 4 | 
